{"source": "patent US7563862B2", "about": "“Neural regeneration peptides and methods for their use in treatment of brain damage” (Neuren Pharmaceuticals Limited, priority 2001, dated 2009)", "key": {"embryonic cortical cells": {"system": "embryonic cortical cells", "assay": "haptotactic migration assay, cortical cells", "type": "cell-based, rat", "details": "1 day in vitro", "from_the_text": "To test the cell adhesion and neuronal migration inducing properties of the NRPs a haptotactic migration cell assay was developed (Lu et al.,2001). For this purpose Transwell® cell culture dishes (Costar) with fitting inserts having pores therein with a 12 μm pore size were used to cultivate striatal and neocortical cells. In general, a test agent was adhered to the surface of a culture dish and an insert having pores was placed in culture medium over but not in contact with the surface of the culture dish. Test cells were placed in the inserts, and any cells migrating through the pores and onto the surface of the culture dish reflected chemattractiveness by the test molecule. Under these conditions, the surface of the culture dish would, over time, release some NRP molecules into the culture medium. It can be appreciated that the concentration of “free” NRP would be greater nearer the surface of the culture dish than at distances farther away from the culture dish, thereby creating a gradient in NRP concentration. […] By counting the number and morphology of such migrant cells, effects of NRPs on neuronal migration and differentiation can be evaluated. […]\nFor seeding striatal cells, 1.5 ml of Neurobasal/B27 medium was put into the culture dishes and 0.5 ml of NeurobasaVB27 medium was put into the insert. The assay was ready for cell seeding. […]"}, "mouse neural stem cells": {"system": "mouse neural stem cells", "assay": "haptotactic migration assay, mouse neural stem cells", "type": "cell-based", "experimental": "NRPs were tested for migration-inducing/chemoattractive activity on mouse neural stem cells, EGF-dependent immortalized mouse neural stem cell line MEB5 and wild-type PC-12 cells in a haptotactic migration assay as described below.\nInitial NRP Coating. Control wells of Transwell plates (Coming) with 12 μm pore size were coated in 1.5 ml of the BSA/PBS vehicle. Remaining plates were coated using various concentrations of NRPs ranging between 1-100 ng/ml (prepared in PBS containing 10 ug/ml BSA). The plates were then incubated at 37° C. for 1 hr to coat. Wells were then rinsed 2× with 1 ml sterile PBS.\nLaminin ([…]) for MEB-5 cells, PDL (50 μg/ml)+Matrigel for mouse primary stem cells and fibronectin (25 ug/ml)+matrigel for PC-12 cells were used as extracellular matrix (ECM) coating for the cells. All ECM compounds were diluted in PBS. 1.5 ml of the ECM per well was incubated for 2 hrs at room temperature. The wells were then rinsed once with Iml serum-free media (e.g. NB/B27) followed by 1 ml PBS wash.\nA 5 ug/mL PDL/PLL mixture (in PBS) was used to coat inserts. Subsequently the inserts were rinsed with MilliQ water.\nTransferring to Media and Cell Seeding: Appropriate medium (MEB-5 cells: DMEM-high glucose+N2 (growth medium supplement from Invitrogen)+10 ng/biotin+2 mM L-glutamine, primary stem cells: NSA-medium from Euroclone and for PC-12 cells: NB/B27 medium) was transferred into the 12-well plates. […] Plates were fixed at 1-2 days in vitro (DIV).\nFixation: Inserts were discarded and wells fixed in successive dilutions of PFA (0.4, 1.2, 3 and 4%) for 3-5min in each dilution. […] The wells were rinsed and stored in PBS until counting.\nA haptotactic migration assay was performed according to the description of Example 10 using rat NRP-9SD (SEQ ID NO:34) (4 nM) and mouse NRP-7SW (SEQ ID NO:24) (0.4 nM) as attractants in a Boyden chamber"}}, "note": "Ends that are not written are not given here."}
{"substance": "SEPEARRAPGRKGGVVCASLAADW-NH2 [NRP-7 segment SW, 24-mer form of mouse NRP-7]", "values": [{"measurement": "more neurons migrated to the culture dish bottom compared to BSA control", "setting": "embryonic cortical cells; 15 ng immobilized, 1 pg/ml in medium", "result": 49.8, "unit": "%"}, {"measurement": "number of cells with neurite outgrowth", "setting": "embryonic cortical cells; 0.1 and 1 μg/ml coating in BSA", "result": "significantly increased"}, {"measurement": "more NSCs attracted to the culture dish bottom", "setting": "mouse neural stem cells; 0.4 nM", "result": 2, "unit": "fold"}, {"measurement": "more E-14 cell density compared with BSA-vehicle", "setting": "mouse neural stem cells; 10 ng/ml coating, 400,000 cells", "result": 35, "unit": "%"}, {"measurement": "potency relative to SDF-1", "setting": "mouse neural stem cells; SDF-1 100 nM vs NRP-7SW 0.2 nM", "result": "about 500 times"}]}
